The test system of experiment [1] is Curlyleaf Pondweed (PTMCR). Briefly: Control of curlyleaf pondweed: aboveground dry weight after exposure to Compound 1. In kind it is in vivo, Potamogeton crispus L. To be noted: thirty days following a 24-hour exposure, untreated 0.087. The source says:
(§1) Apical sections (12 to 15 cm in length) of Eurasian watermilfoil (MYPSP) and curlyleaf pondweed (PTMCR) were planted into small pots (13.5 cm length×3.75 cm diameter) containing topsoil amended with 14-14-14 slow release Osmocote® fertilizer (˜2.5 g Osmocote/kg soil). Approximately 5 to 7 cm of the apical section extended above the sediment at planting, and a sand cap was placed over the potting soil (˜2 cm deep). Plants were then transferred to 12 L acrylic tanks filled with well water. Plants were allowed to grow for 7 d before the treatment was initiated in triple replicate. […] At harvest, plants were rinsed free of algae, roots and shoots were separated and placed in paper sacks in a drying oven for 4 days at 70° C. temperature, and dry weights were measured and compared to an untreated control treatment (Table 3).

Experiment [2] relates to Eurasian Watermilfoil (MYPSP). Briefly: Control of Eurasian watermilfoil: aboveground dry weight after exposure to Compound 1. In kind it is in vivo, Myriophyllum spicatum L. Conditions: thirty days following a 24-hour exposure, untreated 1.257.
Source text: as §1

In experiment [3] the test system is Hydrilla (HYLLI). Briefly: Control of hydrilla: aboveground dry weight after exposure to Compounds 1 and 2 (14 L cylinders). It is filed as in vivo, Hydrilla verticillata (L.f.) Royle. To be noted: final aboveground dry weight, SC formulation, untreated 2.48. On the procedure:
Apical sections of hydrilla (HYLLI) were planted in potting soil amended with Osmocote® fertilizer in small pots (13.5 cm length×3.75 cm diameter). A 2.54 cm sand layer was placed over the top of the potting soil. The pots containing hydrilla were placed into 14 L acrylic cylinders filled with well water and allowed to establish slight growth prior to treatment. Cylinders were then treated with Compound 1 (halauxifen-methyl 96 grams acid equivalent per liter (g ae/L) Suspension Concentrate (SC)) or Compound 2 (benzyl 4-amino-3-chloro-5-fluoro-6-(4-chloro-2-fluoro-3-methoxyphenyl)pyridine-2-carboxylate (125 grams active ingredient per liter (g ai/L) SC)) at 50, 100 and 200 parts per billion (ppb). All treatments were replicated 4 times. […]

Experiment [4] has as its system Hydrilla (HYLLI). Put plainly: Control of hydrilla: aboveground dry weight after submersed exposure (12 L tanks). To be noted: final aboveground dry weight, thirty-three days following submersed exposure, untreated 1.047. In kind it is in vivo, Hydrilla verticillata (L.f.) Royle. The text has this: Apical sections (12 to 15 centimeters (cm) in length) of hydrilla (HYLLI) were planted into small pots (13.5 cm length×3.75 cm diameter) containing topsoil amended with 14-14-14 slow release Osmocote® fertilizer (˜2.5 grams (g) Osmocote per kilogram (kg) soil). Approximately 5 to 7 cm of the apical section extended above the sediment at planting, and a sand cap was placed over the potting soil (˜2 cm deep). Plants were then transferred to 12 liter (L) acrylic tanks filled with well water. Tanks were maintained in a growth room with a 14:10 hour (h) photoperiod at 26° C. (±2° C.). Plants were allowed to grow for 17 days (d) before the treatments were initiated in triple replicate. Plants were treated with Compound 1 (halauxifen-methyl) at 0, 10, 100, 1000 parts per billion (ppb) with three replicates each. Treatments were only applied once. Plants were harvested at 33 d after initial treatment. At harvest, plants were rinsed free of algae and placed in paper sacks in a drying oven for 2 d at 70° C. temperature. Mean dry weights were determined and means separated using least significant differences (Table 1).

For the compound `COC(=O)c1nc(-c2ccc(Cl)c(OC)c2F)cc(N)c1Cl` [Compound 1, methyl 4-amino-3-chloro-6-(4-chloro-2-fluoro-3-methoxyphenyl)pyridine-2-carboxylate], the “Dry Weight (grams) of PTMCR” value in experiment [1] (5 ppb) stood at 0.117 a grams; in experiment [1] (10 ppb) it was 0.043 ab grams; in experiment [1] (50 ppb), 0.000 b grams; in experiment [1] (100 ppb) it was 0.000 b grams. Besides, the “Dry Weight (grams) of MYPSP” value in experiment [2] (5 ppb), in experiment [2] (10 ppb), in experiment [2] (50 ppb) and in experiment [2] (100 ppb) was 0.000 b grams throughout. In addition, the “Dry Weight (grams) of HYLLI” value in the experiment with Hydrilla (HYLLI) [3] (50 ppb) is reported as 0.02 b grams; in the experiment with Hydrilla (HYLLI) [3] (100 ppb) it was 0.64 ab grams; with Hydrilla (HYLLI) [3] (200 ppb), 0 b grams; in the experiment with Hydrilla (HYLLI) [4] (10 ppb) it was 0.02 b grams; in the experiment on Hydrilla (HYLLI) [4] (100 ppb), 0.003 ab grams; in the experiment with Hydrilla (HYLLI) [4] (1000 ppb), 0 b grams.

Take `COc1c(Cl)ccc(-c2nc(C(=O)OCc3ccccc3)c(Cl)c(N)c2F)c1F` [Compound 2, benzyl 4-amino-3-chloro-5-fluoro-6-(4-chloro-2-fluoro-3-methoxyphenyl)pyridine-2-carboxylate]: the “Dry Weight (grams) of HYLLI” value in the experiment with Hydrilla (HYLLI) [3] (50 ppb), in the experiment on Hydrilla (HYLLI) [3] (100 ppb) and in the experiment with Hydrilla (HYLLI) [3] (200 ppb) was 0 b grams throughout.

Source of the values: patent US20150218099A1, “METHODS FOR CONTROL OF AQUATIC WEEDS USING HERBICIDAL 4-AMINO-3-CHLORO-6-(4-CHLORO-2-FLUORO-3-METHOXYPHENYL)PYRIDINE-2-CARBOXYLIC ACIDS” (Dow AgroSciences LLC, priority 2014, published 2015).
